In PubChem BioAssay AID1963831 (Molecular Pharmacology Branch, DTP, NCI, 2024):
pIC50: −log10 of the molar value.

Test system: 889142-216-R-J1-PDC complex spheroid viability
Assay: Anticancer human tumor 889142-216-R-J1-PDC patient-derived bladder carcinoma cell line growth inhibition [POLQ]
Settings: for pIC50: curve of first compound; for viability, T/C: stronger effect = lower value
Experimental: Multicellular complex tumor spheroid response to Polymerase (POL) inhibitors (novobiocin, ART-558, RP6685) in combination with a variety of drugs and investigational agents in selected tumor cell lines
The POL inhibitors (novobiocin, ART-558, and RP6685) were evaluated both individually and in combination with standard of care and investigational anticancer small molecules within a complex spheroid model of solid tumors. . Complex spheroids include a stromal component modeled by human endothelial cells (HUVEC) and fibroblasts modeled by human mesenchymal stem cells (MSCs). The concentration ranges selected for each drug and investigational agent were based upon clinically achievable concentrations if the clinical Cmax of the agent was known.
Compounds. The drugs and investigational agents: novobiocin (NSC847541), ART-558 (NSC835418), RP-6685 (NSC848927), peposertib (NSC802822), ceralasertib (NSC780249), elimusertib (NSC800525), camonsertib (NSC841442), AZD-1390 (NSC803789), olaparib (NSC753686), talazoparib (NSC767125), rucaparib (NSC756644), sotorasib (NSC818433), MRTX-1133 (NSC836407), SN-38 (NSC673596), topotecan (NSC609699), epotoside (NSC141540), doxorubicin (NSC123127), gemcitabine (NSC613327), 5-fluorouracil (NSC19893), paclitaxel (NSC125973), vemurafenib (NSC761431), MSA-2 (NSC828583), SN-011 (NSC837082), adavosertib (NSC754352), prexasertib (NSC758257), carboplatin (NSC241240) and oxaliplatin (NSC266046), were obtained from the National Cancer Institute (NCI) Developmental Therapeutics Program Chemical Repository (21). The FDA-approved anticancer drug set is available from the Developmental Therapeutics Program at https://dtp.cancer.gov/organization/dscb/obtaining/. […] The stock solutions were prepared in dimethyl sulfoxide (DMSO, Sigma-Aldrich, St. Louis, MO, cat. D2650), except for the platinum compounds which were prepared in saline (Quality Biological, Gaithersburg, MD, cat. 114-055-101), at 800-fold the tested concentration and stored at -70 degrees C prior to their use. All drugs and investigational agents were tested over a range starting from a high concentration at or near the clinical Cmax and decreasing in half-log increments. If the clinical Cmax for an agent had not been determined, the highest concentration tested was 10 microM, except for SN-38, which was tested at a high concentration of 1 microM.
Cell Culture. All cells were maintained in an incubator at 37 degrees C and 5% CO2 with 95% humidity. The PDC lines were cultured according to standard operating procedures established by the NCI PDMR (https://pdmr.cancer.gov). Table 3 of the manuscript, lists the cell lines along with the number of the three cell types plated to form the mct-spheroids and media for tumor cell growth. After thawing, all PDC lines, except 997537-175-T-J1-PDC and 415267-285-R-J2-PDC, were cultured in Matrigel-coated flasks prepared with a working solution of 1X Ham's F-12 nutrient mix, without supplementation (Thermo Fisher Scientific, cat. 11765054), 100 U/mL penicillin-streptomycin (Thermo Fisher Scientific, cat. 15140122), and 2.5% Matrigel (Corning Inc., Corning, NY, cat. 354248) for the first three passages. The two PDC lines 997537-175-T-J1-PDC and 415267-285-R-J2-PDC were cultured on uncoated flasks. The 857933-349-R-J2-PDC line was cultured in 6C/Colon 1B media containing advanced DMEM/F-12 (Thermo Fisher Scientific, cat. 12634028), 10 mM HEPES (Thermo Fisher Scientific, cat. 15630080), 1X GlutaMAX supplement (Thermo Fisher Scientific, cat. 35050061), 0.1 mg/mL primocin (InvivoGen, San Diego, CA, cat. ant-pm-2), 10% defined fetal bovine serum, heat inactivated (HyClone Laboratories Inc., Logan, UT, cat. SH30070.03HI), 50% L-WRN conditioned media (ATCC, cat. CRL-3276), 1.25 mM N-Acetyl-L-cysteine (Sigma-Aldrich, cat. A9165), 10 mM nicotinamide (Sigma-Aldrich, cat. N0636), 1X B-27 supplement (Thermo Fisher Scientific, cat. 17504044), 1X N-2 supplement (Thermo Fisher Scientific, cat. […]

[1] = second compound 0.0316 µM, first compound 0.0316 µM
[2] = second compound 0.0316 µM, first compound 0.1 µM
[3] = second compound 0.0316 µM, first compound 0.316 µM
[4] = second compound 0.0316 µM, first compound 1 µM
[5] = second compound 0.0316 µM, first compound 3.16 µM
[6] = second compound 0.0316 µM, first compound 10 µM
[7] = second compound 0.1 µM, first compound 0.0316 µM
[8] = second compound 0.1 µM, first compound 0.1 µM
[9] = second compound 0.1 µM, first compound 0.316 µM
[10] = second compound 0.1 µM, first compound 1 µM
[11] = second compound 0.1 µM, first compound 3.16 µM
[12] = second compound 0.1 µM, first compound 10 µM
[13] = second compound 0.316 µM, first compound 0.0316 µM
[14] = second compound 0.316 µM, first compound 0.1 µM
[15] = second compound 0.316 µM, first compound 0.316 µM
[16] = second compound 0.316 µM, first compound 1 µM
[17] = second compound 0.316 µM, first compound 3.16 µM
[18] = second compound 0.316 µM, first compound 10 µM
[19] = second compound 1 µM, first compound 0.0316 µM
[20] = second compound 1 µM, first compound 0.1 µM
[21] = second compound 1 µM, first compound 0.316 µM
[22] = second compound 1 µM, first compound 1 µM
[23] = second compound 1 µM, first compound 3.16 µM
[24] = second compound 1 µM, first compound 10 µM
[25] = second compound 3.16 µM, first compound 0.0316 µM
[26] = second compound 3.16 µM, first compound 0.1 µM
[27] = second compound 3.16 µM, first compound 0.316 µM
[28] = second compound 3.16 µM, first compound 1 µM
[29] = second compound 3.16 µM, first compound 3.16 µM
[30] = second compound 3.16 µM, first compound 10 µM
[31] = second compound 10 µM, first compound 0.0316 µM
[32] = second compound 10 µM, first compound 0.1 µM
[33] = second compound 10 µM, first compound 0.316 µM
[34] = second compound 10 µM, first compound 1 µM
[35] = second compound 10 µM, first compound 3.16 µM
[36] = second compound 10 µM, first compound 10 µM
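Also: spheroids exposed to compounds for seven days.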
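For viability, T/C in this document: 100% = DMSO vehicle control viability.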

For `CC1COCCN1c1cc(C2(O)CC3CCC(C2)O3)c2cnn(-c3ccn[nH]3)c2n1` (centres undefined) + Cc1cccc(N(C)C(=O)C2C(O)CCN2c2nc(C)cc(C(F)(F)F)c2C#N)c1, the pIC50 (second compound 0.0316 µM) was 6.88, the pIC50 (second compound 0.1 µM) was 7.15 and the pIC50 (second compound 0.316 µM) was 6.88. The pIC50 (second compound 1 µM) was 6.99, the pIC50 (second compound 3.16 µM) was 7.01 and the pIC50 (second compound 10 µM) was 7.25. It also gave a viability, T/C [1] of 66.5%, a viability, T/C [2] of 48.2% and a viability, T/C [3] of 42.3%. For the same compound, the viability, T/C [4] was 34.2%, the viability, T/C [5] was 26.1% and the viability, T/C [6] was 14.6%. For the same compound, the viability, T/C [7] was 56.7%, the viability, T/C [8] was 48.1% and the viability, T/C [9] was 36.1%. The viability, T/C [10] was 29%, the viability, T/C [11] was 23.8% and the viability, T/C [12] was 15.2%. The viability, T/C [13] was 66.8%, the viability, T/C [14] was 49.5% and the viability, T/C [15] was 39.8%. For the same compound, the viability, T/C [16] was 34.5%, the viability, T/C [17] was 25.9% and the viability, T/C [18] was 12.4%. For the same compound, the viability, T/C [19] was 62.7%, the viability, T/C [20] was 48.4% and the viability, T/C [21] was 38.9%. The viability, T/C [22] was 31.2%, the viability, T/C [23] was 22.6% and the viability, T/C [24] was 12.4%. The viability, T/C [25] was 61.5%, the viability, T/C [26] was 47.9% and the viability, T/C [27] was 40%. It also gave a viability, T/C [28] of 30.6%, a viability, T/C [29] of 26.4% and a viability, T/C [30] of 13.7%. It also gave a viability, T/C [31] of 55.9%, a viability, T/C [32] of 43.6% and a viability, T/C [33] of 37.6%. It also gave a viability, T/C [34] of 29.5%, a viability, T/C [35] of 29.9% and a viability, T/C [36] of 13.3%.

With `CC(C)n1c(=O)n(C)c2cnc3cc(F)c(-c4ccc(OCCCN5CCCCC5)nc4)cc3c21` + COC1C(OC(N)=O)C(O)C(Oc2ccc3c(O)c(NC(=O)c4ccc(O)c(CC=C(C)C)c4)c(=O)oc3c2C)OC1(C)C the pIC50 (second compound 0.0316 µM) was < 5.00, the pIC50 (second compound 0.1 µM) was 5.22 and the pIC50 (second compound 0.316 µM) was < 5.00. The pIC50 (second compound 1 µM) was < 5.00, the pIC50 (second compound 3.16 µM) was 5.06 and the pIC50 (second compound 10 µM) was < 5.00. It also gave a viability, T/C [1] of 91.2%, a viability, T/C [2] of 86.3% and a viability, T/C [3] of 78.3%. It also gave a viability, T/C [4] of 86.5%, a viability, T/C [5] of 54.6% and a viability, T/C [6] of 52.8%. It also gave a viability, T/C [7] of 88.6%, a viability, T/C [8] of 105% and a viability, T/C [9] of 81.7%. For the same compound, the viability, T/C [10] was 85.8%, the viability, T/C [11] was 60.4% and the viability, T/C [12] was 41.5%. For the same compound, the viability, T/C [13] was 105%, the viability, T/C [14] was 71.1% and the viability, T/C [15] was 85.8%. The viability, T/C [16] was 76.8%, the viability, T/C [17] was 58.9% and the viability, T/C [18] was 56.8%. The viability, T/C [19] was 113%, the viability, T/C [20] was 86.2% and the viability, T/C [21] was 80.4%. It also gave a viability, T/C [22] of 71.2%, a viability, T/C [23] of 67.1% and a viability, T/C [24] of 52.2%. For the same compound, the viability, T/C [25] was 92.4%, the viability, T/C [26] was 106% and the viability, T/C [27] was 88.7%. For the same compound, the viability, T/C [28] was 71.4%, the viability, T/C [29] was 61.6% and the viability, T/C [30] was 46.9%. It also gave a viability, T/C [31] of 94.4%, a viability, T/C [32] of 92.8% and a viability, T/C [33] of 81.3%. For the same compound, the viability, T/C [34] was 88%, the viability, T/C [35] was 65.9% and the viability, T/C [36] was 53.7%.
